The record followed here is US20130012709A1, “NOVEL INHIBITORS OF STEAROYL-CoA-DESATURASE-1 AND THEIR USES” (CENTRE NATIONAL DE LA RECHERCHE SCIENTIFIQUE, priority 2009, published 2013).

In data set [1] the test system is C4-2 cells. In words: Measurement of de novo fatty acid synthesis. Format: cell-based. The settings on record: Homo sapiens, C4-2, 25 μM. As to the method: (§1) The tested inhibitor was added overnight at a final concentration of 25 μM to subconfluent cultures of cells grown in 6-wells plate in serum and fatty acid-free DMEM media supplemented with 0.2% BSA. Cultures were then labeled in triplicate with 1.0 μCi of [U—^14C]-palmitate or -stearate for 6 h, and total lipids were folch extracted with chloroform/methanol. Labeled lipids were subjected to TLC in hexane/diethyl ether/acetic acid 90:10:1 (V/V), to separate cholesterol ester, triglycerides and phospholipids. Standards were run for each of the lipid classes. After chromatography, labeled lipid classes were quantified by scintillation counting and radioactivity was normalized to DNA content.

In data set [2] the test system is LNCaP cells. In words: Measurement of de novo fatty acid synthesis. In kind it is cell-based. The settings on record: Homo sapiens. As to the method:
as §1

The test system of data set [3] is C4-2 cells. As to the kind of experiment: PI(3,4,5)P3 mass ELISA. The settings on record: C4-2, 25 μM, 24 h, vs non-treated cells. Format: cell-based, human. As to the method:
(§2) The production of PI(3,4,5)P3 (PIP3) in LNCaP and C4-2 prostate cancer cells was measured 24 h following exposure to control medium or to medium supplemented with the inhibitor tested at 25 μM. The levels of produced PIP3 were quantified after cellular lipids extraction using a PI(3,4,5)P3 mass ELISA kit according to the manufacturer's instruction.

Data set [4] deals with LNCaP cells. As to the kind of experiment: PI(3,4,5)P3 mass ELISA. The settings on record: 25 μM, 24 h, vs non-treated cells. In kind it is cell-based, human. As to the method:
as §2
In general terms: An ELISA detects its analyte on a solid surface through an enzyme-linked reagent.

For data set [5], the system named is β-catenin-Tcf4 complex in C4-2 cells. In words: TCF/LEF-1 reporter (pTOP-FLASH) luciferase assay. Format: cell-based, human. As to the method:
The transcriptional activity of the β-catenin-Tcf4 complex was analysed by performing transient transfections with 0.25 μg TCF/LEF-1 reporter (pTOP-FLASH) or control vector (pFOP-FLASH).
Luciferase activities in cell lysates were normalized relative to the β-galactosidase activity to correct for differences in transfection efficiency.

Data set [6] has as its system C4-2 cells. In words: Human WNT Signaling Pathway PCR Array. Format: cell-based. The settings on record: C4-2, 25 μM. As to the method: C4-2 cells treated with the compound tested at 25 μM were analysed for the expression profiles of 84 genes related to Wnt-mediated signal transduction by using Human WNT Signaling Pathway PCR Array according to the manufacturers' recommendations (Tebu-Bio, Le Perray en Yvelines, France). The relative content of cDNA samples was normalized with the endogenous β2M, HPRT1, RPL13 and GAPDH reference genes, and the relative mRNA level was calculated according to the formula 2^−(ΔCt). Values are expressed as the fold change in relative mRNA level following treatment of cells with the tested compound at 25 μM, as compared to control.

Data set [7] can be described thus: Toxicity in nude mice after daily i.p. injection. Format: in vivo. As to the method:
Male athymic nude Mice (Foxn1 nu/nu) (Harlan, Grannat, France) were used at the age of 7 weeks (weight 25-30 g). All procedures were performed in compliance with the European Convention for the Protection of Vertebrate Animals Used for Experimentation (animal house agreement # B-34-172-27, authorization for animal experimentation #34.324). Experiments were done at least twice for each tested condition. Animals were sacrificed before they became compromised. Xenografts were established by subcutaneously injecting 2×10^6 LNCaP cells, 2×10^6 C4-2 cells or 5×10^5 MEFs SV40 in 100 μl of a Matrigel solution. For curative experiments, tumors were allowed to growth until they were measurable with a caliper. In each group, the mice were randomized and given SCD-1 inhibitor at 80 mg/kg in 100 μl of a labrafil-DMA-tween^80 solution (89:10:1) (treated group) or vehicle alone (control group), by daily intra-peritoneal (i.p.) injection 5 days of week. For preventive experiments, the mice were treated daily for 7 days before the day of xenograft. Tumor volume measurements were taken twice to three times a week and calculated according to the formula: length×width×height×0.5236. Data are expressed as the mean tumor volume or as fold of the start point tumor volume. […] All mice were monitored for survival until tumor volume had reached 2000 mm^3 or until death. […]

Data set [8] deals with MEFs transformed by HaRasV12 and SV40 Large T. In words: Proliferation of MEFs. Format: cell-based, mouse. As to the method: (§3) Primary MEFs were obtained from embryos at embryonic day 13.5 by standard methods.
(§4) Monolayer cell cultures were grown in Dulbecco's Modified Eagle's Medium (DMEM) supplemented with 25 mM glucose and 10% FCS.
(§5) At 24 h, 48 h, 72 h and 96 h following addition of increasing concentrations of the tested compound in DMSO or DMSO alone, cells were trypsinized, pelleted by centrifugation at 1200 rpm for 5 min, resuspended in 500 μl of culture medium and counted in an hemocytometer.

The next data set has as its system normal MEFs (WT). In words: Proliferation of MEFs. In kind it is cell-based, mouse. The settings on record: slowly growing normal MEFs (WT). As to the method:
as §3, §4, §5

Data set [9] relates to p53−/− MEFs transformed by HaRasV12. As to the kind of experiment: Proliferation of MEFs. In kind it is cell-based, mouse. The settings on record: p53−/− MEFs fully transformed by HaRasV12. As to the method: as §3, §4, §5
The next data set deals with ras SV40 MEFs tumors. As to the kind of experiment: ras SV40 MEFs xenograft, curative and preventive. Format: in vivo, mice. As to the method: Male athymic nude Mice (Foxn1 nu/nu) (Harlan, Grannat, France) were used at the age of 7 weeks (weight 25-30 g). All procedures were performed in compliance with the European Convention for the Protection of Vertebrate Animals Used for Experimentation (animal house agreement # B-34-172-27, authorization for animal experimentation #34.324). Experiments were done at least twice for each tested condition. Animals were sacrificed before they became compromised. Xenografts were established by subcutaneously injecting 2×10^6 LNCaP cells, 2×10^6 C4-2 cells or 5×10^5 MEFs SV40 in 100 μl of a Matrigel solution. For curative experiments, tumors were allowed to growth until they were measurable with a caliper. In each group, the mice were randomized and given SCD-1 inhibitor at 80 mg/kg in 100 μl of a labrafil-DMA-tween^80 solution (89:10:1) (treated group) or vehicle alone (control group), by daily intra-peritoneal (i.p.) injection 5 days of week. For preventive experiments, the mice were treated daily for 7 days before the day of xenograft. Tumor volume measurements were taken twice to three times a week and calculated according to the formula: length×width×height×0.5236. Data are expressed as the mean tumor volume or as fold of the start point tumor volume. For survival analysis, animals bearing pre-established C4-2 tumors were treated with BZ36 at 80 mg/kg or 160 mg/kg or with vehicle by daily i.p. injection 5 days of week. All mice were monitored for survival until tumor volume had reached 2000 mm^3 or until death. Analysis of survival was conducted by a log-rank test based on the Kaplan-Meier method. At euthanasia, tumors were excised and fixed in 4% formalin for immunohistological analyses.
Immunohistochemical analysis of SCD-1 expression was performed using high-density Tissue Microarray (TMA) slide (Accumax array) with 39 prostate adenocarcinoma spots from different patients (Gleason scores from 5 to 9) with corresponding normal tissues. […] Sections were mounted in mowiol and analysed rapidly.

Setting [10] is: read-out: inhibition of [U-14C]-palmitate incorporation into phospholipids.
Where [11] appears, read: read-out: inhibition of [U-14C]-palmitate incorporation into sterol esters.
Setting [12] is: read-out: inhibition of [U-14C]-palmitate incorporation into triglycerides.
[13] abbreviates: read-out: inhibition of [U-14C]-stearate incorporation into phospholipids.
Where [14] appears, read: read-out: inhibition of [U-14C]-stearate incorporation into sterol esters.
The mark [15] stands for this setting: read-out: inhibition of [U-14C]-stearate incorporation into triglycerides.

Like-named read-outs stand apart in the source and are kept apart here.

Consider `COc1ccc(Br)c(C(=O)N2CCN(c3ccc(C(=O)NCCCc4ccccc4)cn3)CC2)c1` [BZ36], for which the inhibition at 25 µM in the data set with C4-2 cells [1] (setting [10]) was found to be 41%; in the data set with C4-2 cells [1] (setting [11]) it was 33%; in the data set on C4-2 cells [1] (setting [12]), 24%; in the data set with C4-2 cells [1] (setting [13]) it was 49%; with C4-2 cells [1] (setting [14]), 70%; in the data set with C4-2 cells [1] (setting [15]), 19%. Besides, the inhibition at 25 µM was determined as 58% in the data set on LNCaP cells [2] (setting [10]); 39% in the data set with LNCaP cells [2] (setting [11]); 27% in the data set with LNCaP cells [2] (setting [12]); 81% in the data set with LNCaP cells [2] (setting [13]); 77% in the data set on LNCaP cells [2] (setting [14]); 78% in the data set on LNCaP cells [2] (setting [15]). The “decrease of PI(3,4,5)P3 concentration” value in the data set on C4-2 cells [3] is 92%; in the data set on LNCaP cells [4] it was 84%. Besides, the “activity of a β-cat reporter” value in [5] is on record as “decreased activity”. Also, the “expression of genes in the β-cat pathway (frizzled family, cyclin D1, D2, D3, myc, c-jun, Wnt family members)” value in the data set with C4-2 cells [6] is “decreased expression”. For the same molecule, the “histological examination of liver and skin” value in data set [7] is “absence of toxicity”. In addition, the “weight loss or other toxicity” value in data set [7] is on record as “no significant weight loss or other toxicity”. In addition, the proliferation index entry in [8] is on record as “strongly decreased”; with normal MEFs (WT), “only moderately reduced”. In addition, in data set [9], the proliferation entry is listed as “efficiently blocked”. Also, in the data set with ras SV40 MEFs tumors (curative, from day 2, maintained along 12 days, vs vehicle), the “ras SV40 MEFs tumors growth” value was “significantly prevented”. The “mice with tumors five days after cells were grafted” value with ras SV40 MEFs tumors (pre-treatment one week prior to graft, almost all vehicle treated mice developed tumors) was determined as 50%. Also, in the data set on ras SV40 MEFs tumors (ras SV40 MEFs xenografts, vs vehicle-treated mice), the “decrease of proliferative tumor cells (PCNA immunostaining)” value came out at 61%.
